In US10645928B2, “Pesticidally active polycyclic derivatives with sulfur containing substituents” (Syngenta Participations AG, priority 2014, dated 2020):

Legend:
Type in all cases: in vivo
[1] = test system: Spodoptera littoralis (Egyptian Cotton Leaf Worm); assay: Example B17: Spodoptera littoralis, sprayed cotton leaf discs, mortality, anti-feeding effect and growth inhibition; conditions: foliar, 72 h, application rate of 200 ppm, L1 larvae, 3 days after infestation, read-out: control (at least one of mortality, anti-feedant effect, growth inhibition)
Summary of the method: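 Cotton leaf discs on agar sprayed with aqueous dilutions of 10,000 ppm DMSO stocks, dried, then infested with five L1 larvae. Mortality, anti-feeding and growth inhibition scored against untreated discs 3 days after infestation. Control recorded when any one category exceeds the untreated sample.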

[2] = test system: Plutella xylostella (Diamond Back Moth); assay: Example B13: Plutella xylostella, treated artificial diet, mortality and growth inhibition; conditions: 120 h, application rate of 200 ppm, L2 larvae, 5 days after infestation, read-out: effect in at least one of the two categories (mortality or growth inhibition)
Protocol: (§1) 24-well microtiter plates with artificial diet were treated with aqueous test solutions prepared from 10,000 ppm DMSO stock solutions by pipetting. After drying, the plates were infested with L2 larvae (10 to 15 per well). The samples were assessed for mortality and growth inhibition in comparison to untreated samples 5 days after infestation.

[3] = test system: Plutella xylostella (Diamond Back Moth); assay: Example B10: Plutella xylostella, treated artificial diet, growth inhibition; conditions: 120 h, application rate of 200 ppm, L2 larvae, 5 days after infestation
Summary of the method: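 Artificial diet treated with aqueous dilutions prepared from 10,000 ppm DMSO stocks, dried, then infested with 10-15 L2 larvae per well. Growth inhibition scored against untreated samples 5 days after infestation.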

[4] = test system: Spodoptera littoralis (Egyptian Cotton Leaf Worm); assay: Example B14: Spodoptera littoralis, sprayed cotton leaf discs, anti-feeding effect; conditions: foliar, 72 h, application rate of 200 ppm, L1 larvae, 3 days after infestation
Summary of the method: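 Cotton leaf discs on agar sprayed with aqueous test solutions made from 10,000 ppm DMSO stocks, dried, then infested with five L1 larvae. Anti-feeding effect scored 3 days after infestation against untreated discs; control counted when anti-feedant effect exceeds untreated.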

[5] = test system: Euschistus heros (Neotropical Brown Stink Bug); assay: Example B5: Euschistus heros, sprayed soybean leaves, mortality; conditions: 120 h, application rate of 200 ppm, N2 nymphs, 5 days after infestation
Protocol: (§2) Soybean leaves on agar in 24-well microtiter plates were sprayed with aqueous test solutions prepared from 10,000 ppm DMSO stock solutions. After drying the leaves were infested with N2 nymphs. The samples were assessed for mortality 5 days after infestation.

[6] = test system: Spodoptera littoralis (Egyptian Cotton Leaf Worm); assay: Example B19: Spodoptera littoralis, compound in agar absorbed by lettuce roots, anti-feedant effect; conditions: 144 h, test rate of 12.5 ppm, uptake by lettuce roots, Spodoptera eggs, 6 days after infestation, read-out: anti-feeding
Summary of the method: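 Compound from DMSO stock mixed into agar; lettuce seedlings took it up via roots over 7 days, then cut leaves were infested with Spodoptera eggs. Anti-feedant effect scored 6 days after infestation relative to untreated samples.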

[7] = test system: Spodoptera littoralis (Egyptian Cotton Leaf Worm); assay: Example B20: Spodoptera littoralis, compound in agar absorbed by lettuce roots, mortality; conditions: 144 h, test rate of 12.5 ppm, uptake by lettuce roots, Spodoptera eggs, 6 days after infestation
Summary of the method: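 Compound from a 10,000 ppm DMSO stock mixed into agar; lettuce grown on it for 7 days to take up compound via roots, then leaves cut into lid plate. Spodoptera eggs applied on humid blotting paper; mortality scored 6 days after infestation.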

[8] = test system: Tetranychus urticae (Two-Spotted Spider Mite); assay: Example B21: Tetranychus urticae, sprayed bean leaf discs, mortality; conditions: foliar, 192 h, application rate of 200 ppm, mixed population (mobile stages), 8 days after infestation
Protocol: as §2, with “Bean leaf discs” for “Soybean leaves”, “leaf discs” for “leaves”, “a mite population of mixed ages.” for “N2 nymphs.”, “on mixed population (mobile stages) 8” for “5”

[9] = test system: Diabrotica balteata (Corn Root Worm); assay: Example B2: Diabrotica balteata, sprayed maize sprouts, mortality and growth inhibition; conditions: 96 h, application rate of 200 ppm, L2 larvae, 4 days after infestation, read-out: effect in at least one of the two categories (mortality or growth inhibition)
Protocol: as §1, with “Maize sprouts placed onto an agar layer in 24-well” for “24-well”, “plates” for “plates with artificial diet”, “spraying.” for “pipetting.”, “(6” for “(10”, “10” for “15”, “4” for “5”

[10] = test system: Frankliniella occidentalis (Western Flower Thrips); assay: Example B7: Frankliniella occidentalis, sprayed sunflower leaf discs, mortality; conditions: foliar, 168 h, application rate of 200 ppm, population of mixed ages, 7 days after infestation
Protocol: Sunflower leaf discs were placed on agar in 24-well microtiter plates and sprayed with aqueous test solutions prepared from 10,000 DMSO stock solutions. After drying the leaf discs were infested with a Frankliniella population of mixed ages. The samples were assessed for mortality 7 days after infestation.

[11] = test system: Spodoptera littoralis (Egyptian Cotton Leaf Worm); assay: Example B16: Spodoptera littoralis, sprayed cotton leaf discs, mortality; conditions: foliar, 72 h, application rate of 200 ppm, L1 larvae, 3 days after infestation
Protocol: Cotton leaf discs were placed onto agar in 24-well microtiter plates and sprayed with aqueous test solutions prepared from 10,000 ppm DMSO stock solutions. After drying the leaf discs were infested with five L1 larvae. The samples were assessed for mortality 3 days after infestation.

[12] = test system: Diabrotica balteata (Corn Root Worm); assay: Example B3: Diabrotica balteata, sprayed maize sprouts, mortality; conditions: 96 h, application rate of 200 ppm, L2 larvae, 4 days after infestation
Protocol: Maize sprouts placed onto an agar layer in 24-well microtiter plates were treated with aqueous test solutions prepared from 10,000 ppm DMSO stock solutions by spraying. After drying, the plates were infested with L2 larvae (6 to 10 per well). The samples were assessed for mortality 4 days after infestation.

[13] = test system: Myzus persicae (Green Peach Aphid); assay: Example B8: Myzus persicae, sprayed sunflower leaf discs, mortality; conditions: foliar, 144 h, application rate of 200 ppm, leaf disc spray, aphid population of mixed ages, 6 days after infestation
Protocol: Sunflower leaf discs were placed onto agar in a 24-well microtiter plate and sprayed with aqueous test solutions prepared from 10,000 ppm DMSO stock solutions. After drying, the leaf discs were infested with an aphid population of mixed ages. The samples were assessed for mortality 6 days after infestation.

CCS(=O)(=O)c1cc(C(C#N)CCBr)cnc1-c1cn2cnc(C(F)(F)F)cc2n1 (stereo not shown) [Compound P13, 4-bromo-2-[5-ethylsulfonyl-6-[7-(trifluoromethyl)imidazo[1,2-c]pyrimidin-2-yl]-3-pyridyl]butanenitrile]
≥ 80%: percent control (mortality, anti-feedant effect or growth inhibition) at 200 ppm [1] | percent effect (mortality or growth inhibition) at 200 ppm [2] | inhibition at 200 ppm [3] | pest or weed control at 200 ppm [4] | mortality at 200 ppm [5] | pest or weed control at 12.5 ppm [6] | mortality at 12.5 ppm [7] | mortality at 200 ppm [8] | percent effect (mortality or growth inhibition) at 200 ppm [9] | mortality at 200 ppm [10] | mortality at 200 ppm [11] | mortality at 200 ppm [12] | mortality at 200 ppm [13]
